Values after ≈ are worked out from the molar mass of the structure shown.
Columns and labels:
[1] = test system: U87 MG (malignant glioma cell); experiment: Solid tumor cell growth inhibition, MTT, 72 h (Example 7); type: cell-based; conditions: Homo sapiens, U-87 MG
Outline: (§1)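 Cells (4000/well) were seeded in DMEM high glucose with 10% FBS and grown 24 h at 37 °C, 5% CO2, then exposed to tetrandrine derivatives at different concentrations for 72 h. Viable cells were measured by MTT, with viability expressed as % of untreated control (100%).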

[2] = test system: SK-OV-3 (ovarian cancer cell); experiment: as above; type: cell-based; conditions: Homo sapiens
Outline: as §1

[3] = test system: RKO (human colon adenocarcinoma cell); experiment: as above; type: cell-based; conditions: Homo sapiens; 72 h, MTT, RKO
Outline: as §1

A549 (human lung cancer) = experiment: as above; type: cell-based; conditions: Homo sapiens; 72 h, MTT, A549
Outline: as §1

[4] = test system: Huh7 (human liver cancer cell); experiment: as above; type: cell-based
Outline: as §1

[5] = test system: Hela (human cervical cancer cell); experiment: as above; type: cell-based; conditions: Homo sapiens; 72 h, MTT, Hela
Outline: as §1

[6] = test system: MGC 803 (human gastric cancer cell); experiment: as above; type: cell-based; conditions: Homo sapiens
Outline: as §1

[7] = test system: CNE (nasopharyngeal carcinoma cell); experiment: as above; type: cell-based; conditions: Homo sapiens
Outline: as §1

[8] = test system: Becap37 (human breast cancer cell); experiment: as above; type: cell-based
Outline: as §1

[9] = test system: RPMI8226 (multiple myeloma); experiment: Multiple myeloma cell growth inhibition, MTT, 72 h (Example 6); type: cell-based, human; conditions: Homo sapiens, RPMI-8226; 72 h, MTT, RPMI8226
Outline: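 RPMI8226 cells (6000 per well) in RPMI 1640 with 10% FBS were exposed to a range of tetrandrine derivative concentrations for 72 h at 37 °C under 5% CO2. Viable cell concentration was then measured by MTT.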

[10] = Experiment 8-2: body weight of nude mice, preliminary toxicity; conditions: for Weight (g) Final: 50 mg/kg intragastric, 3 times a day, 10 days, final body weight; for Weight (g) Final / Weight (g) Initial: M±SD; for Weight (g) Initial: nude mice body weight before administration
Method: (§3) Animal: BALB/c nude mice, 8 weeks, female, purchased from Shanghai Laboratory Animal Center of Chinese Academy of Sciences, China.
(§4) The mice are administered from the third day after the inoculation. Each mouse is intragastrically administered in 0.4 ml each time and 3 times a day, at 8:00, 14:00 and 20:00, with 6-hour intervals. The administrations are successive for 10 days. The day before administration is deemed as Day 0 and the body weight and tumor size are determined every 5 days to produce a dynamic plot on body weight and tumor growth. On Day 29, the mice are dissected and the tumors are taken out and weighted. The tumor inhibition rate (%) is calculated after the effect of the medicament based on the tumor inhibition rate of the control group being zero.
(§5) The values determined are presented as mean±standard error (M±SD).

MG63 (osteosarcoma) = experiment: Solid tumor cell growth inhibition, MTT, 72 h (Example 7); type: cell-based, human; conditions: Homo sapiens; 72 h, MTT, MG-63
Outline: as §1

[11] = test system: Hep-2 (laryngeal carcinoma); experiment: as above; type: cell-based, human; conditions: Homo sapiens; 72 h, MTT, Hep 2
Outline: as §1

[12] = test system: CaES-17 (esophageal cancer cell); experiment: as above; type: cell-based, human; conditions: Homo sapiens, CaEs17; 72 h, MTT, CAES-17
Outline: as §1

[13] = test system: PANC-1 (pancreatic cancer); experiment: as above; type: cell-based, human
Outline: as §1

PC-3 (prostate cancer) = experiment: as above; type: cell-based, human; conditions: Homo sapiens; 72 h, MTT, PC-3
Outline: as §1

[14] = test system: human non-small cell lung cancer cell line A549 transplanted tumor; experiment: Experiment 8-2: transplanted tumor of human lung cancer in nude mice; type: in vivo, BALB/c nude mice; conditions: for Mass of tumor: Day 29, M±SD
Text: Cell lines: human non-small cell lung cancer cell line A549, from China Center for Type Culture Collection (CCTCC);
The administrations are successive for 10 days.

[15] = test system: Jurkat (acute lymphoblastic leukemia, ALL); experiment: Leukemia cell growth inhibition, MTT, 72 h (Example 5); type: cell-based, human
Outline: (§2)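 6000 cells per well were seeded in RPMI 1640 with 10% FBS, exposed to graded concentrations of 5-substituted tetrandrine derivatives, and held 72 hours at 37° C, 5% CO2. Viable cell concentration was then measured by MTT.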

[16] = test system: K562/adr (drug-resistant, chronic myeloid leukemia, CML); experiment: as above; type: cell-based, human; conditions: Homo sapiens, K562/Adr; 72 h, MTT
Outline: as §2

[17] = test system: Kasumi-1 (acute myeloid leukemia M2 type, AML-M2); experiment: as above; type: cell-based, human; conditions: Homo sapiens, Kasumi 1
Outline: as §2

[18] = test system: NB4 (acute promyelocytic leukemia, AML); experiment: as above; type: cell-based, human; conditions: Homo sapiens; 72 h, MTT
Outline: as §2

[19] = test system: H9 (acute lymphoblastic leukemia, ALL); experiment: as above; type: cell-based, human; conditions: Homo sapiens; 72 h, MTT
Outline: as §2

[20] = mouse, in vivo, 50 mg/kg
Method: as §3, §4, §5

[21] = Homo sapiens, 72 h, MTT, Becap-37
[22] = Homo sapiens, 72 h, MTT, PANC-1
[23] = 50 mg/kg intragastric, 3 times a day, 10 days
[24] = Homo sapiens, Jurkat, 72 h, MTT

SMILES: COc1ccc2cc1Oc1ccc(cc1)C[C@H]1c3cc(c(OC)cc3CCN1C)Oc1c(OC)c(OC)c(CN3CCC(N(C)C)CC3)c3c1[C@H](C2)N(C)CC3 [BS-TE-354]
- IC50 [1]: 0.31 µg/mL (≈ 0.406 µM)
- IC90 [1]: 1.44 µg/mL (≈ 1.89 µM)
- IC50 [2]: 1.4 µg/mL (≈ 1.83 µM)
- IC90 [2]: > 16 µg/mL
- IC50 [3]: 0.25 µg/mL (≈ 0.328 µM)
- IC90 [3]: 0.51 µg/mL (≈ 0.668 µM)
- IC50 (A549 (human lung cancer)): 1.8 µg/mL (≈ 2.36 µM)
- IC90 (A549 (human lung cancer)): 9.8 µg/mL (≈ 12.8 µM)
- IC50 ([4]; Homo sapiens, 72 h, MTT, Huh-7): 0.65 µg/mL (≈ 0.852 µM)
- IC90 ([4]; Homo sapiens, 72 h, MTT, Huh-7): 0.98 µg/mL (≈ 1.28 µM)
- anti-Huh7 activity increase over tetrandrine ([4]; compared with tetrandrine): ~8 fold
- IC50 [5]: 1.07 µg/mL (≈ 1.4 µM)
- IC90 [5]: 2.81 µg/mL (≈ 3.68 µM)
- IC50 [6]: 0.83 µg/mL (≈ 1.09 µM)
- IC90 [6]: 3.93 µg/mL (≈ 5.15 µM)
- IC50 [7]: 0.54 µg/mL (≈ 0.708 µM)
- IC90 [7]: 1.62 µg/mL (≈ 2.12 µM)
- IC50 [8, 21]: 0.4 µg/mL (≈ 0.524 µM)
- IC90 [8, 21]: 2.4 µg/mL (≈ 3.15 µM)
- anti-Becap37 activity increase over tetrandrine ([8]; compared with tetrandrine): 17 fold
- IC50 [9]: 0.08 µg/mL (≈ 0.105 µM)
- IC90 [9]: 1.58 µg/mL (≈ 2.07 µM)
- weight loss as compared with the weight in the control group (FIG. 6) ([10]; 50 mg/kg): relatively remarkable
- Weight (g) Final [10]: 16.08 ± 1.00 g
- Weight (g) Initial [10]: 22.25 ± 0.29 g
- IC50 (MG63 (osteosarcoma)): 0.68 µg/mL (≈ 0.891 µM)
- IC90 (MG63 (osteosarcoma)): 0.9 µg/mL (≈ 1.18 µM)
- IC50 [11]: 2.05 µg/mL (≈ 2.69 µM)
- IC90 [11]: 6.19 µg/mL (≈ 8.11 µM)
- IC50 [12]: 0.91 µg/mL (≈ 1.19 µM)
- IC90 [12]: 4.89 µg/mL (≈ 6.41 µM)
- IC50 [13, 22]: 1.25 µg/mL (≈ 1.64 µM)
- IC90 [13, 22]: 6.31 µg/mL (≈ 8.27 µM)
- anti-PANC-1 activity increase over tetrandrine ([13]; compared with tetrandrine): 2 fold
- IC50 (PC-3 (prostate cancer)): 1.9 µg/mL (≈ 2.49 µM)
- IC90 (PC-3 (prostate cancer)): 2.5 µg/mL (≈ 3.28 µM)
- effect on transplanted tumor of human lung cancer in nude mice ([14]; 50 mg/kg): exhibits inhibiting effect
- Mass of tumor [14, 23]: 423.25 ± 364.28 mg
- Tumor Inhibition rate (%) ([14]; 50 mg/kg intragastric, 3 times a day, 10 days, Day 29, control = zero): 43.60%
- IC50 [15, 24]: 0.5 µg/mL (≈ 0.655 µM)
- IC90 [15, 24]: 2.23 µg/mL (≈ 2.92 µM)
- anti-Jurkat activity increase over tetrandrine ([15]; compared with tetrandrine): ~4 fold
- IC50 [16]: 0.99 µg/mL (≈ 1.3 µM)
- IC90 [16]: 2.65 µg/mL (≈ 3.47 µM)
- IC50 [17]: 0.37 µg/mL (≈ 0.485 µM)
- IC90 [17]: 1.97 µg/mL (≈ 2.58 µM)
- IC50 [18]: 0.4 µg/mL (≈ 0.524 µM)
- IC90 [18]: 1 µg/mL (≈ 1.31 µM)
- IC50 [19]: 0.78 µg/mL (≈ 1.02 µM)
- IC90 [19]: 1.25 µg/mL (≈ 1.64 µM)
- toxic and side effect under such a dosage [20]: has caused some toxic and side effect

SMILES: COc1cc2ncnc(Nc3ccc(F)c(Cl)c3)c2cc1OCCCN1CCOCC1 [Jef, gefitinib, reference compound]
- Weight (g) Final [10]: 21.8 ± 0.99 g
- Weight (g) Initial [10]: 22.1 ± 0.17 g
- Mass of tumor [14, 23]: 883 ± 273.32 mg
